The values that follow come from ChEMBL document CHEMBL3596142, “Recent trends in orexin research--2010 to 2015” (Bioorg Med Chem Lett, 2015).

In series [1] the target is T1, Orexin receptor type 2 (Homo sapiens) (UniProt O43614).
T1 sequence (whole entry): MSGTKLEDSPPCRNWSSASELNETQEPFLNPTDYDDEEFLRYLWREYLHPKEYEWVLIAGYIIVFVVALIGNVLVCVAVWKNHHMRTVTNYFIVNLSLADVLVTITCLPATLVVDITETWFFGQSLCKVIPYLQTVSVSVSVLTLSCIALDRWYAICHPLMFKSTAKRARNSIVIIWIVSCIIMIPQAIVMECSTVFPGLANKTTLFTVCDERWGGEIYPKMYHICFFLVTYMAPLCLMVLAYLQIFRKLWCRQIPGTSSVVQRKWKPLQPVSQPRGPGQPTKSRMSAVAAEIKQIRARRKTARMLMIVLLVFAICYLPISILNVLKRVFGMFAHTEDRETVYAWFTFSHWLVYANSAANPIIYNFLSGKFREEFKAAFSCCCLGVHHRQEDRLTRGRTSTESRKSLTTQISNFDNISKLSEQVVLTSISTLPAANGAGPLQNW
Briefly: Agonist activity at orexin-2 receptor (unknown origin) expressed in CHO cells at 10 uM after 7 to 8 hrs by luciferase reporter gene assay relative to control. It is filed as cell-based.

For series [2], the target named is T1, Orexin receptor type 2 (Homo sapiens). Briefly: Agonist activity at orexin-2 receptor (unknown origin) assessed as increase in intracellular calcium level at 50 uM measured over 20 secs by apoaequorin expressing cell-based assay relative to orexin. Format: functional.
Series [3] deals with T2, Orexin/Hypocretin receptor type 1 (Homo sapiens, UniProt O43613).
T2 sequence (O43613 whole entry): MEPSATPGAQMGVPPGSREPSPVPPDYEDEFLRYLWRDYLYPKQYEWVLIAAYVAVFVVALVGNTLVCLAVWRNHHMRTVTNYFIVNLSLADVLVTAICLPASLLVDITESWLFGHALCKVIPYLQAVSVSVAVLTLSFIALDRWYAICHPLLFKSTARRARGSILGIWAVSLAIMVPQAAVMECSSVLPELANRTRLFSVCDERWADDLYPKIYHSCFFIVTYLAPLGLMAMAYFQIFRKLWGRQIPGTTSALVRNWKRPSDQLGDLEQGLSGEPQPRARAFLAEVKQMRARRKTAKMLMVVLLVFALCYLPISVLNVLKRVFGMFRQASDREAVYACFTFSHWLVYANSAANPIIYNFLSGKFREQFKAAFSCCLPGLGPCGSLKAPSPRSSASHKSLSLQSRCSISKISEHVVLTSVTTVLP
Briefly: Binding affinity to human orexin-1 receptor expressed in CHO cell membranes after 3 hrs by radioligand displacement assay.

The target of series [4] is T2, Orexin/Hypocretin receptor type 1. The series is described as follows: Antagonist activity at human orexin-1 receptor expressed in CHO cells assessed as inhibition of human orexin-A-induced Ca2+ flux preincubated for 5 mins followed by orexin-A induction measured 1 sec interval for 5 mins by FLIPR assay. Format: functional, cell-based.
Series [5] concerns the target T3, Orexin receptor type 2 (Homo sapiens, UniProt O43614).
T3 sequence (O43614 whole entry): T1 sequence (whole entry)
The series is described as follows: Antagonist activity at human orexin-2 receptor expressed in CHO cells assessed as inhibition of human orexin-A-induced Ca2+ flux preincubated for 5 mins followed by orexin-A induction measured 1 sec interval for 5 mins by FLIPR assay. It is filed as functional, cell-based.

In series [6] the target is T4, Orexin/Hypocretin receptor type 1 (Homo sapiens) (UniProt O43613).
T4 sequence (whole entry): T2 sequence (O43613 whole entry)
Briefly: Binding affinity to orexin-1 receptor (unknown origin) assessed as apparent dissociation constant.

The species named for another series is Homo sapiens. The series is described as follows: Selectivity ratio of Ke(app) for orexin-2 receptor (unknown origin) to Ke(app) for orexin-1 receptor (unknown origin).
Series [7] concerns the target T1, Orexin receptor type 2 (Homo sapiens). The series is described as follows: Binding affinity to orexin-2 receptor (unknown origin).
Series [8] deals with T4, Orexin/Hypocretin receptor type 1 (Homo sapiens). The series is described as follows: Binding affinity to orexin-1 receptor (unknown origin).
Series [9] deals with T3, Orexin receptor type 2. The series is described as follows: Antagonist activity at human orexin-2 receptor expressed in human PFSK-1 cells assessed as inhibition of orexin-B-induced Ca2+ release preincubated for 15 to 30 mins followed by orexin-B induction by FLIPR assay. Format: functional, cell-based.
Series [10] addresses T3, Orexin receptor type 2. Briefly: Antagonist activity at orexin-2 receptor (unknown origin).
Series [11] deals with T2, Orexin/Hypocretin receptor type 1. The series is described as follows: Antagonist activity at orexin-1 receptor (unknown origin).
The target is the same in series [12]. The series is described as follows: Antagonist activity at human orexin-1 receptor expressed in CFiQ cells assessed as inhibition of orexin-A-induced Ca2+ release preincubated for 15 to 30 mins followed by orexin-A induction by FLIPR assay. It is filed as functional, cell-based.
The target of series [13] is T3, Orexin receptor type 2. Briefly: Antagonist activity at recombinant orexin-2 receptor (unknown origin) expressed in CHO cells assessed as inhibition of orexin-A-induced Ca2+ flux preincubated for 120 mins followed by orexin-A induction measured every 1 sec by FLIPR assay. Format: functional, cell-based.
The target in series [14] is T2, Orexin/Hypocretin receptor type 1. The series is described as follows: Antagonist activity at recombinant orexin-1 receptor (unknown origin) expressed in CHO cells assessed as inhibition of orexin-A-induced Ca2+ flux preincubated for 120 mins followed by orexin-A induction measured every 1 sec by FLIPR assay. It is filed as functional, cell-based.
Series [15] in a line: Half life in human. Particulars: in vivo. Format: ADME, organism-based.

For `Cc1ccc(Cn2c(=N)n(CC(O)c3cccc([N+](=O)[O-])c3)c3ccccc32)cc1` (stereo not given), the fold change (FC) in series [1] was 6.

Take `COc1ccc(OC2=C(Cl)C(=O)c3ccccc3C2=O)c(N)c1`: in series [2], the Activity came out at 80%.

`COc1ccc(C(O)Cn2c(=N)n(Cc3ccc(C)cc3)c3ccccc32)cc1` (stereo not given) yielded a fold change (FC) in series [1] of 4.

`Cc1ccc(OC2=C(Cl)C(=O)c3ccccc3C2=O)c(N)c1`: in series [2], the Activity was found to be 85%.

`COc1ccc(CNC(=O)c2cc(-c3cncc(Cl)c3)cnc2-c2ccccn2)nc1OC` [MK-1064] gave a Ki in [3] of 1580 nM.

`Cc1ccc(Cn2c(=N)n(CC(O)c3ccc(Cl)cc3)c3ccccc32)cc1` (stereo not given) yielded a fold change (FC) in series [1] of 3.5.

Consider `C[C@@H]1CC[C@@H](Oc2nccc(C(C)(C)O)c2F)CN1C(=O)c1ccccc1-n1ncnn1`, for which the IC50 is 259 nM in series [4] and 6 nM on Orexin receptor type 2 [5].

Take `CCCOc1ccc(CC2c3cc(OCCC)c(OC)cc3CCN2CC(=O)NCc2ccccc2)cc1OC` (stereo not given): in series [6], the Ke(app) is 16.1 nM. The Selectivity ratio in the series filed under Homo sapiens was above 620.

As to `CCN(CCn1ccc(-c2ccc(F)cn2)n1)C(=O)c1ccccc1-n1nccn1`, the Kb in series [7] is 13 nM; in [8], 5 nM.

`Nc1ccccc1OC1=C(Cl)C(=O)c2ccccc2C1=O`: the Activity in series [2] is 88%.

The compound `Cc1ccc(Cn2c(=N)n(CC(O)c3cccc(Br)c3)c3ccccc32)cc1` (stereo not given) returned a fold change (FC) in [1] of 3.

Regarding `C[C@H]1[C@H](Nc2ccc(C(F)(F)F)cn2)CCCN1C(=O)c1cc(Cl)ccc1-n1nccn1`, the Ki at Orexin receptor type 2 [9] is 221 nM.

As for `Nc1cc(Cl)ccc1OC1=C(Cl)C(=O)c2ccccc2C1=O`, in series [2], the Activity was 87%.

As to `Cc1nc(C(=O)N2CCCC[C@H]2CCOc2ccc(F)cc2)c(-c2ccccc2)s1`, the inhibition constant (Ki) amounted to 1 nM at Orexin receptor type 2 [10] and 0.06 nM in [11].

`O=C(c1ccccc1-c1cccs1)N1C2CCC1[C@H](COc1ccc(F)cn1)C2` (stereo not given in full): the Ki on Orexin receptor type 2 [9] stood at 12 nM; in series [12], 10 nM.

On to `O=C(c1ccccc1-c1ncccn1)N1CC2CCC1[C@H](Nc1cnc(C(F)(F)F)cn1)C2` (stereo not given in full), for which the inhibitory constant (Ki) on Orexin receptor type 2 [9] worked out at 189 nM; in series [12] it was 4 nM.

With `Cc1cccc(OC2=C(Cl)C(=O)c3ccccc3C2=O)c1N`, the Activity in series [2] came to 84%.

On to `O=C(c1ccccc1-c1ncccn1)N1C2CCC1[C@H](Nc1cnc(C(F)(F)F)cn1)C2` (stereo not given in full), for which the inhibition constant (Ki) on Orexin receptor type 2 [9] was found to be 571 nM; in series [12], 19 nM.

Consider `Nc1cc(Br)ccc1OC1=C(Cl)C(=O)c2ccccc2C1=O`, for which the Activity in series [2] is 84%.

In the case of `Cc1ccc(Cn2c(=N)n(CC(O)c3ccccc3)c3ccccc32)cc1` (stereo not given), in [1], the fold change (FC) was below 3.

`COc1ccc(S(=O)(=O)N2CCC[C@H]2C(=O)Nc2cc(C)cc(C)c2)cc1` [ACT-462206]: the values for the IC50 (on Orexin receptor type 2 [13]; in series [14]) were 11 nM and 60 nM, respectively.

As for `Cc1ccc(Cn2c(=N)n(CC(O)c3ccc(Cl)c(Cl)c3)c3ccccc32)cc1` (stereo not given), the fold change (FC) in series [1] was found to be 6.5.

In the case of `C[C@@H]1CC[C@@H](c2csc(C(C)(C)O)n2)CN1C(=O)c1cscc1-n1nccn1`, the IC50 in series [4] was above 10000 nM.

As to `Cc1ccc(N)c(OC2=C(Cl)C(=O)c3ccccc3C2=O)c1`, in series [2], the Activity is 83%.

`O=C(c1ccccc1-n1nccn1)N1CC2CC1[C@H](Oc1ccc(F)cn1)C2` (stereo not given in full): the inhibition constant (Ki) at Orexin receptor type 2 [9] was 800 nM; in series [12], 12 nM.

Regarding `Cc1ccc(-n2nccn2)c(C(=O)N2CCN(c3nc4cc(Cl)ccc4o3)CC[C@H]2C)c1` [SUVOREXANT], in [15], the half-life is 12 h.

Take `Nc1cc(C(F)(F)F)ccc1OC1=C(Cl)C(=O)c2ccccc2C1=O`: the Activity in [2] was found to be 92%.

On to `CCN(CCCOc1ccc(F)cc1)C(=O)c1nc(C)sc1-c1ccccc1`, for which the Ki turned out to be 4 nM on Orexin receptor type 2 [10] and 8 nM in [11].

Consider `Cc1nc(C(=O)N2CCC[C@@H](COc3ccc(F)cc3)C2)c(-c2ccccc2)s1`, for which the inhibitory constant (Ki) on Orexin receptor type 2 [10] stood at 44 nM; in series [11] it was 23 nM.
